Converted amounts (≈) assume the structure as drawn. Read-outs that look alike come from different tables or passages of the source. Positions of bridges follow the written chain, without caps; N, C: chain ends. Residues, ends and D or L forms follow the SMILES beside them.
Tests used:
[1] = tested on: Candida albicans ATCC 90028; assay type: cell-based; conditions: C. albicans; Control: two-step microdilution assay in Tris buffer 10 mM without salts; median of triplicates
Experimental: (§1) The three bacterial strains—Escherichia coli ATCC 25922, Pseudomonas aeruginosa ATCC 27853, and Staphylococcus aureus ATCC 29213—as well as the fungal strain Candida albicans ATCC 90028 were provided by the Department of Clinical Bacteriology, Lund University Hospital. Bacillus subtilis CCUG 163B^T and Bacillus cereus CCUG 7414^T were obtained from the Department of Molecular Sciences, Swedish University of Agricultural Sciences.
(§2) Antimicrobial activities of the peptides were evaluated using the two-step microdilution assay, which is designed for testing AMPs without activity-inhibiting components. Briefly, bacteria were grown to the mid-logarithmic phase at 37 °C in 3% (w/v) tryptic soy broth (TSB) (Merck KGaA, Darmstadt, Germany). The microbial culture was washed twice by centrifugation and resuspension in 10 mM Tris buffer (pH 7.4 at 37 °C, adjusted by HCl). The microbial suspension was quantified by OD600, diluted, and transferred to 96-well untreated polystyrene microplates prepared with 2-fold serial dilutions of the peptides using 50,000 bacteria per well (all dilutions in Tris buffer). These were incubated for 5 h at 37 °C, after which 5 µL of 20% (w/v) TSB was added to each well and the microplates were re-incubated for an additional 6–12 h (depending on the growth rate of each organism). All MICs presented are the medians from triplicate experiments performed independently.
(§3) A two-step assay was supplemented with a physiological concentration of salts and diluted human serum and the MIC of the peptides was evaluated as in 4.6.

[2] = tested on: Pseudomonas aeruginosa ATCC 27853; assay type: cell-based; conditions: P. aeruginosa; Control: two-step microdilution assay in Tris buffer 10 mM without salts; median of triplicates
Experimental: as §1, §2, §3

[3] = tested on: Staphylococcus aureus ATCC 29213; assay type: cell-based; conditions: S. aureus; Control: two-step microdilution assay in Tris buffer 10 mM without salts; median of triplicates
Experimental: as §1, §2, §3

[4] = tested on: Salmonella enterica serovar Typhimurium DA6192 wild type and LL-37-resistant mutants (waaY, phoP); experiment: MIC against LL-37-resistant strains in buffer conditions; assay type: cell-based; set-up: unit not given here; conditions: 20 mM sodium phosphate buffer with 0.1% TSB, 16 to 20 h, 37 °C
Experimental: (§4) The LL-37 resistant mutants (DA22427 and DA23307) used in this study were derived from Salmonella enterica serovar Typhimurium DA6192, wild-type and cyclotides-resistant mutants (DA54114 and DA57107) were derived from E. coli MG1655 (wild type) and were kindly provided by Department of Medical Biochemistry and Microbiology, Uppsala University.
(§5) MIC measurements were performed in 20 mM sodium phosphate buffer (PBS), supplemented with 0.1% TSB in 96-well plates (round bottom, Nunc A/S, Roskilde, Denmark) in a total volume of 100 µL. The overnight cultures were diluted 5 × 10^5 CFU/mL in the same medium and 90 µL was transferred into the plates containing 10 µL of 2-fold diluted peptides. […] At least two independent experiments were performed with two technical replicates. In cyclotides, resistant mutant average MIC was reported.

[5] = tested on: E. coli MG1655 wild type and cyclotides-resistant mutants; experiment: MIC against cyclotide-resistant strains in buffer conditions; assay type: cell-based, Escherichia coli; set-up: unit not given here
Experimental: as §4, §5

[6] = tested on: Bacillus cereus CCUG 7414T; assay type: cell-based; conditions: CCUG 7414, 24 h
From the text: as §1
(§6) The standard broth microdilution assay was utilized to assess the MIC of designed peptides according to the guidelines of the Clinical and Laboratory Standards Institute (CLSI). Briefly, bacteria were grown in unbuffered Mueller–Hinton Broth (MHB, VWR International, Leuven, Belgium) as well as buffered (containing 50 mM NaHCO3) medium to the mid-logarithmic phase and were quantified by OD600. The bacterial suspension was diluted in the same medium to reach a final density of 1 × 10^6 colony-forming unit per milliliter (CFU/mL). A volume of 50 µL of the bacterial suspension was added to 96-well plates containing 50 µL of MHB in the absence (viability control) or the presence of the peptides at different concentrations (0.625–80 µM). […] MIC values were derived from 3 sets of independent experiments with different bacterial cultures.

[7] = tested on: Bacillus subtilis CCUG 163BT; assay type: cell-based; conditions: CCUG 163, 24 h
From the text: as §1, §6

[8] = molecular target: T1, aureolysin from S. aureus (Staphylococcus aureus, UniProt P81177); experiment: Stability in the presence of the protease aureolysin; assay type: in vitro ADME; conditions: peptide:enzyme 200:1, 37 °C, RP-HPLC-MS
T1 construct: purchased
Experimental: Peptide stability was also assayed in commercially available Gram-positive, S. aureus protease, aureolysin. […] All the samples were then incubated at 37 °C at different incubation times. The reaction was quenched by acidifying with 5 µL of 0.1% formic acid. The samples were analyzed on MS coupled to RP-HPLC.

[9] = Liposome leakage assay (carboxyfluorescein efflux); conditions: E. coli lipid liposomes versus POPC/cholesterol liposomes, 45 min, 37 °C
Experimental: The liposome leakage assay was performed as described previously. In brief, the following lipids/lipid mixture was used: Escherichia coli polar lipid extract or 1-palmitoyl-2-oleoyl-sn-glycerol-3-phosphocoline1-palmitoyl-2-oleoyl-sn-glycerol (POPC, both from Avanti Polar Lipids, Alabaster, US-AL) and cholesterol (Sigma Aldrich). The lipid bilayers were formed on round-bottom flask walls by dissolving lipids in chloroform was evaporated under a flow of N2 and the lipid bilayer was placed in a vacuum overnight. Lipid bilayers were re-suspended in an aqueous solution of 100 mM 5(6)-carboxyfluorescein in 10 mM Tris buffer. […] Membrane permeability was measured by monitoring carboxyfluorescein efflux from the liposomes to the external low-concentration environment, resulting in loss of self-quenching and an increased fluorescence signal with excitation and emission wavelengths of 492 and 517 nm, respectively. […] The effect on liposome permeability for each peptide concentration was monitored for 45 min, at which point leakage had largely subsided. […] The EC50 values are (when applicable) calculated using sigmoidal dose–response curves, with the leakage percentage (0–100 constraints) as a function of the peptide concentration (log10), using GraphPad Prism.

[10] = tested on: Bacillus subtilis CCUG 163BT; assay type: cell-based; conditions: CCUG 163, 5 h
Experimental: as §1, §2

[11] = tested on: Escherichia coli ATCC 25922; assay type: cell-based; conditions: ATCC 25922, 24 h
From the text: as §1, §6

[12] = tested on: Pseudomonas aeruginosa ATCC 27853; assay type: cell-based; conditions: ATCC 27853, 24 h
From the text: as §1, §6

[13] = tested on: Staphylococcus aureus ATCC 29213; assay type: cell-based; conditions: ATCC 29213, 24 h
From the text: as §1, §6

[14] = S. typhimurium phoP LL-37-resistant mutant
[15] = S. typhimurium waaY LL-37-resistant mutant

T1 sequence (P81177 209-509): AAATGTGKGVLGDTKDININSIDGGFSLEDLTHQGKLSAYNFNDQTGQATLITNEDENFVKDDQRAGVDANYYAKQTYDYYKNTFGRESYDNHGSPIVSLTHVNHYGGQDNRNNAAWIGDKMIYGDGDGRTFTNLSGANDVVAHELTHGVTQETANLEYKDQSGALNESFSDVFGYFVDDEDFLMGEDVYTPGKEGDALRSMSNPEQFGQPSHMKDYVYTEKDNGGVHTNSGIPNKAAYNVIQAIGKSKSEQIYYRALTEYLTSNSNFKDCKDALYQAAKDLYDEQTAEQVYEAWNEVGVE

Row | Structure (SMILES) | MIC [1] [µM] | MIC [2] [µM] | MIC [3] [µM] | MIC ([4]; S. typhimurium WT (DA6192)) | MIC [4, 14] | MIC [4, 15] | MIC ([5]; E. coli DA54114 cyclotide-resistant mutant, sodium phosphate buffer with 0.1% TSB, average MIC) | MIC ([5]; E. coli DA57107 cyclotide-resistant mutant, sodium phosphate buffer with 0.1% TSB, average MIC) | MIC ([5]; E. coli WT (MG1655), 20 mM sodium phosphate buffer with 0.1% TSB, 16 to 20 h, 37 °C) | MIC [6] [µM] | MIC [7] [µM] | time for which the peptide was stable in aureolysin (stable for up to) [8] [h] | bacterial target selectivity relative to LL-37 (factor) [9] [fold] | MIC [10] [µM] | MIC [11] [µM] | MIC [12] [µM] | MIC [13] [µM]
1 | CC[C@H](C)[C@@H]1NC(=O)[C@H](CCCNC(=N)N)NC(=O)[C@@H]2CSSC[C@H](NC(=O)[C@H](CCCCN)NC(=O)[C@H]([C@@H](C)CC)NC(=O)[C@H](CCCNC(=N)N)NC(=O)[C@H](CCCCN)NC(=O)[C@H](C(C)C)NC(=O)[C@H]([C@@H](C)CC)NC(=O)[C@H](CCCNC(=N)N)NC(=O)[C@H](CCCCN)NC(=O)CNC(=O)CNC(=O)[C@@H]3CCCN3C(=O)CNC(=O)[C@H](CCCNC(=N)N)NC(=O)[C@H](CC(C)C)NC(=O)[C@H](Cc3ccccc3)NC(=O)[C@H](C)NC(=O)[C@H](CCCCN)NC1=O)C(=O)N[C@@H](Cc1ccccc1)C(=O)N[C@@H](CC(C)C)C(=O)N[C@@H](CCCNC(=N)N)C(=O)NCC(=O)N1CCC[C@H]1C(=O)NCC(=O)NCC(=O)N[C@@H](CCCCN)C(=O)N[C@@H](CCCNC(=N)N)C(=O)N[C@@H]([C@@H](C)CC)C(=O)N[C@@H](C(C)C)C(=O)N2 [cd4-CCPP] (cyclo(CFLRGPGGKRIVCRIKAFLRGPGGKRIVKRIK); disulfide 1-13) | 0.625 | 0.625 | 0.625 | 2.5 | 1.25 | 1.25 | 0.25 | 0.25 | 0.37 | > 40 | > 40 | ≥ 8 | 6 | – | – | – | –
2 | CC[C@H](C)[C@@H]1NC(=O)[C@H](CCCNC(=N)N)NC(=O)[C@@H]2CSSC[C@H](NC(=O)[C@H](CCCCN)NC(=O)[C@H]([C@@H](C)CC)NC(=O)[C@H](CCCNC(=N)N)NC(=O)[C@H](CCCCN)NC(=O)[C@H](C(C)C)NC(=O)[C@H]([C@@H](C)CC)NC(=O)[C@H](CCCNC(=N)N)NC(=O)[C@H](CCCCN)NC(=O)CNC(=O)CNC(=O)[C@H](C)NC(=O)CNC(=O)[C@H](CCCNC(=N)N)NC(=O)[C@H](CC(C)C)NC(=O)[C@H](Cc3ccccc3)NC(=O)[C@H](C)NC(=O)[C@H](CCCCN)NC1=O)C(=O)N[C@@H](Cc1ccccc1)C(=O)N[C@@H](CC(C)C)C(=O)N[C@@H](CCCNC(=N)N)C(=O)NCC(=O)N[C@@H](C)C(=O)NCC(=O)NCC(=O)N[C@@H](CCCCN)C(=O)N[C@@H](CCCNC(=N)N)C(=O)N[C@@H]([C@@H](C)CC)C(=O)N[C@@H](C(C)C)C(=O)N2 [cd4-CC] (cyclo(CFLRGAGGKRIVCRIKAFLRGAGGKRIVKRIK); disulfide 1-13) | – | – | – | 1.25 | 1.25 | 2.5 | – | – | – | > 40 | > 40 | – | – | 0.625 (≈ 2.19 µg/mL) | 5 (≈ 17.5 µg/mL) | 5 (≈ 17.5 µg/mL) | >40
